Test results published in patent US20210255193A1, “LYSINE REACTIVE PROBES AND USES THEREOF” (The Scripps Research Institute, priority 2017, published 2021).
Blank lines part the entries; values can stand above or below the compound they belong to.

Columns and labels:
Experiment in all cases: competitive isoTOP-ABPP
Format in all cases: binding
[1] = molecular target: T1, ATP6V1F V-type proton ATPase subunit F (Homo sapiens, UniProt Q16864); conditions: for isoTOP-ABPP ratio (R) at liganded lysine Q16864_K6: sol, 231; for R value (DMSO/fragment) for probe 1 labeling: Q16864_K6; for isoTOP-ABPP ratio, lysine Q16864_K6: 50 uM_231_sol_in vitro
T1 construct: isoTOP-ABPP experiments performed in cell lysates (in vitro); endogenous in cells; host or cells: soluble proteome of human cancer cell lines (MDA-MB-231; Ramos and Jurkat also prepared)
T1 sequence (Q16864 whole entry, the tested form may be a part): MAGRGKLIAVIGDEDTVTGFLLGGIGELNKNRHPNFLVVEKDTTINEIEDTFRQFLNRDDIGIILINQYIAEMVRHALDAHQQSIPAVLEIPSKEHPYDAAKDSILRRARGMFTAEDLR
Summary of the method: (§1)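 Readout: isotopic light/heavy MS1 peak-area ratio (R, DMSO heavy over compound light), median across peptides sharing a modified lysine. Lysate received fragment (activated esters 50 μM, guanidinylating agents 100 μM final) or DMSO, then 0.1 mM STP-alkyne probe for 1 h at ambient temperature.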

[2] = molecular target: T2, FAM136A Protein FAM136A (Homo sapiens, UniProt Q96C01); conditions: for isoTOP-ABPP ratio (R) at liganded lysine Q96C01_K99: sol, 231; for isoTOP-ABPP ratio, lysine Q96C01_K99: 50 uM_231_sol_in vitro
T2 construct: isoTOP-ABPP experiments performed in cell lysates (in vitro); endogenous in cells; host or cells: soluble proteome of human cancer cell lines (MDA-MB-231; Ramos and Jurkat also prepared)
T2 sequence (Q96C01 whole entry): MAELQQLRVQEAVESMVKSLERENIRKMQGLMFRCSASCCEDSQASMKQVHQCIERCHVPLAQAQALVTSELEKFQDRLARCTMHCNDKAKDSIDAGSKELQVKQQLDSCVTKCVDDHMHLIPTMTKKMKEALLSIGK
Summary of the method: as §1

[3] = molecular target: T3, KIAA1033 WASH complex subunit 7 (Homo sapiens, UniProt Q2M389); conditions: for isoTOP-ABPP ratio (R) at liganded lysine Q2M389_K302: sol, 231; for R value (DMSO/fragment) for probe 1 labeling: Q2M389_K302
T3 construct: isoTOP-ABPP experiments performed in cell lysates (in vitro); endogenous in cells; host or cells: soluble proteome of human cancer cell lines (MDA-MB-231; Ramos and Jurkat also prepared)
T3 sequence (Q2M389 1-1173): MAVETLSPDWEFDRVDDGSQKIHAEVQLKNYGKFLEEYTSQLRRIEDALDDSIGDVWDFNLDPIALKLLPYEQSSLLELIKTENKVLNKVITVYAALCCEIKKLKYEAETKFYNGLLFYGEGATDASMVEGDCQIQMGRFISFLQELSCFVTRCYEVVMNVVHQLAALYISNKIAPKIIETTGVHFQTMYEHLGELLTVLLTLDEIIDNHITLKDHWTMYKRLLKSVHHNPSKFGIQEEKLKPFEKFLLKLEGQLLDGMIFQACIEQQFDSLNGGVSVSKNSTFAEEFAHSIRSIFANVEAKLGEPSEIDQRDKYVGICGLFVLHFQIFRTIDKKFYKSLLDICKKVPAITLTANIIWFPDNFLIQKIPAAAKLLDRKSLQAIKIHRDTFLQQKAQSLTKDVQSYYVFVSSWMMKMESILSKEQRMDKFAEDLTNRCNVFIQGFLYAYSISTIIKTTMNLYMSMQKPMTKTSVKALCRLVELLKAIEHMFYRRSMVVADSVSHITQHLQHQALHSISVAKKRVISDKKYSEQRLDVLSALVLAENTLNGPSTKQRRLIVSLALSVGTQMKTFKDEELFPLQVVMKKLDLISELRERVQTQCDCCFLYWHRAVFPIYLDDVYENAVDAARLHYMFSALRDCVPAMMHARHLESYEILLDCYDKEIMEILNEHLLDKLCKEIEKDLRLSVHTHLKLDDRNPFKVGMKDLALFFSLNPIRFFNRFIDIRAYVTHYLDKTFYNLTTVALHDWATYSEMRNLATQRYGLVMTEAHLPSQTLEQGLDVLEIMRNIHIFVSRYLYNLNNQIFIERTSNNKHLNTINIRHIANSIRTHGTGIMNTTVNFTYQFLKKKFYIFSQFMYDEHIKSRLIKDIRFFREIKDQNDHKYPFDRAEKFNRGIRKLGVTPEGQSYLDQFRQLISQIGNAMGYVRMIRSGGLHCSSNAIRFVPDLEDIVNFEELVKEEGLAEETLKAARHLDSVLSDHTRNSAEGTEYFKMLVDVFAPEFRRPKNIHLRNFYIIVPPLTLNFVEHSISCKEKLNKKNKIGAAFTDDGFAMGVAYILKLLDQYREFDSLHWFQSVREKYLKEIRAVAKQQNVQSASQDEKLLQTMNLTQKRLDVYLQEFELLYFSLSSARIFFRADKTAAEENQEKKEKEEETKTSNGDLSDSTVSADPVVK
Summary of the method: as §1

[4] = molecular target: T4, TTR Transthyretin (Homo sapiens, UniProt P02766); conditions: for isoTOP-ABPP ratio (R) at liganded lysine P02766_K35 / R value (DMSO/fragment) for probe 1 labeling / isoTOP-ABPP reactivity ratio at lysine P02766_K35: 50 uM, in vitro; for isoTOP-ABPP ratio (R) at liganded lysine P02766_K35: sol, 231; for R value (DMSO/fragment) for probe 1 labeling: P02766_K35; for R value (DMSO/fragment) for probe 1 labeling / isoTOP-ABPP reactivity ratio at lysine P02766_K35: 231 sol; for isoTOP-ABPP ratio, lysine P02766_K35: 50 uM_231_sol_in vitro
T4 construct: isoTOP-ABPP experiments performed in cell lysates (in vitro); endogenous in cells; host or cells: MDA-MB-231 soluble lysate
Summary of the method: as §1

SMILES: CC(C)(C)OC(=O)NCCCC(=O)Oc1ccc([N+](=O)[O-])cc1[N+](=O)[O-] [fragment 41, 2,4-Dinitrophenyl 4-((tert-butoxycarbonyl)amino)butanoate]
isoTOP-ABPP ratio (R) at liganded lysine Q16864_K6 ([1]; 50 uM, in vitro): 1.0
isoTOP-ABPP ratio (R) at liganded lysine Q96C01_K99 ([2]; 50 uM, in vitro): 0.9
isoTOP-ABPP ratio (R) at liganded lysine Q2M389_K302 ([3]; 50 uM, in vitro): 1.5
isoTOP-ABPP ratio (R) at liganded lysine P02766_K35 [4]: 3.4

R value (DMSO/fragment) for probe 1 labeling ([1]; 50 uM, 231 sol, in vitro): 1.1
R value (DMSO/fragment) for probe 1 labeling ([3]; 50 uM, 231 sol, in vitro): 3.6
R value (DMSO/fragment) for probe 1 labeling [4]: 2.6
SMILES: Cn1cc(CC(=O)Oc2c(F)c(F)c(F)c(F)c2F)c2ccccc21 [fragment 22, Pentafluorophenyl 2-(1-methyl-1H-indol-3-yl)acetate]

SMILES: O=C(Oc1ccc([N+](=O)[O-])cc1[N+](=O)[O-])c1ccc(-c2ccccc2)cc1 [fragment 37, 2,4-Dinitrophenyl [1,1′-biphenyl]-4-carboxylate]
isoTOP-ABPP ratio (R) at liganded lysine Q16864_K6 ([1]; 50 uM, in vitro): 1.0
isoTOP-ABPP ratio (R) at liganded lysine Q96C01_K99 ([2]; 50 uM, in vitro): 1.0
isoTOP-ABPP ratio (R) at liganded lysine Q2M389_K302 ([3]; 50 uM, in vitro): 0.9

SMILES: COc1cc(CCC(=O)Oc2ccc([N+](=O)[O-])cc2[N+](=O)[O-])cc(OC)c1OC [fragment 33, 2,4-Dinitrophenyl 3-(3,4,5-trimethoxyphenyl)propanoate]
isoTOP-ABPP reactivity ratio at lysine Q16864_K6 ([1]; 50 uM, 231 sol, in vitro): 0.8
isoTOP-ABPP reactivity ratio at lysine Q96C01_K99 ([2]; 50 uM, 231 sol, in vitro): 0.7
isoTOP-ABPP reactivity ratio at lysine Q2M389_K302 ([3]; 50 uM, 231 sol, in vitro): 0.9
isoTOP-ABPP reactivity ratio at lysine P02766_K35 [4]: 2.7

R value (DMSO/fragment) for probe 1 labeling ([1]; 50 uM, 231 sol, in vitro): 1.1
R value (DMSO/fragment) for probe 1 labeling ([2]; Q96C01_K99, 50 uM, 231 sol, in vitro): 0.9
R value (DMSO/fragment) for probe 1 labeling ([3]; 50 uM, 231 sol, in vitro): 0.9
R value (DMSO/fragment) for probe 1 labeling [4]: 1.4
SMILES: O=C(Oc1c(F)c(F)c(F)c(F)c1F)C(c1ccccc1)c1ccccc1 [fragment 20, Pentafluorophenyl 2,2-diphenylacetate]

SMILES: O=C(Oc1ccc([N+](=O)[O-])cc1[N+](=O)[O-])c1ccc2ccccc2n1 [fragment 35, 2,4-Dinitrophenyl quinoline-2-carboxylate]
isoTOP-ABPP ratio (R) at liganded lysine Q2M389_K302 ([3]; 50 uM, in vitro): 1.4
isoTOP-ABPP ratio (R) at liganded lysine P02766_K35 [4]: 15.6

SMILES: O=C(CCc1ccc2c(c1)OCO2)Oc1ccc([N+](=O)[O-])cc1[N+](=O)[O-] [fragment 45, 2,4-Dinitrophenyl 3-(benzo[d][1,3]dioxol-5-yl)propanoate]
isoTOP-ABPP ratio, lysine Q16864_K6 [1]: 1.0
isoTOP-ABPP ratio, lysine Q96C01_K99 [2]: 1.0
isoTOP-ABPP ratio, lysine Q2M389_K302 ([3]; 50 uM_231_sol_in vitro): 1.2
isoTOP-ABPP ratio, lysine P02766_K35 [4]: 2.5

R value (DMSO/fragment) for probe 1 labeling ([3]; 50 uM, 231 sol, in vitro): 1.5
R value (DMSO/fragment) for probe 1 labeling [4]: 1.0
SMILES: COc1cc(CCC(=O)Oc2c(F)c(F)c(F)c(F)c2F)cc(OC)c1OC [fragment 23, Pentafluorophenyl 3-(3,4,5-trimethoxyphenyl)propanoate]

SMILES: O=C(Oc1ccc([N+](=O)[O-])cc1[N+](=O)[O-])c1ccccc1Nc1cccc(C(F)(F)F)c1 [fragment 40, 2,4-Dinitrophenyl 2-((3-(trifluoromethyl)phenyl)amino)benzoate]
isoTOP-ABPP ratio (R) at liganded lysine Q16864_K6 ([1]; 50 uM, in vitro): 0.9
isoTOP-ABPP ratio (R) at liganded lysine Q96C01_K99 ([2]; 50 uM, in vitro): 0.8
isoTOP-ABPP ratio (R) at liganded lysine Q2M389_K302 ([3]; 50 uM, in vitro): 0.9

SMILES: O=C(ON1C(=O)CCC1=O)c1cc(C(F)(F)F)cc(C(F)(F)F)c1 [fragment 46, 3,5-Bis(trifluoromethyl)benzoic acid NHS ester]
isoTOP-ABPP ratio, lysine Q16864_K6 [1]: 20.0
isoTOP-ABPP ratio, lysine Q96C01_K99 [2]: 0.6
isoTOP-ABPP ratio, lysine P02766_K35 [4]: 2.3

SMILES: O=C(Oc1ccc([N+](=O)[O-])cc1[N+](=O)[O-])c1cc(C(F)(F)F)cc(C(F)(F)F)c1 [fragment 31, 2,4-Dinitrophenyl 3,5-bis(trifluoromethyl)benzoate]
isoTOP-ABPP reactivity ratio at lysine P02766_K35 [4]: 16.1
targeting of K35 ([4]; TTR K35): preferentially targeted

SMILES: CC(=O)Oc1ccc([N+](=O)[O-])cc1[N+](=O)[O-] [fragment 43, 2,4-Dinitrophenyl acetate]
isoTOP-ABPP ratio (R) at liganded lysine Q16864_K6 ([1]; 50 uM, in vitro): 20.0
isoTOP-ABPP ratio (R) at liganded lysine Q96C01_K99 ([2]; 50 uM, in vitro): 1.1

SMILES: O=C(Oc1ccc([N+](=O)[O-])cc1[N+](=O)[O-])C(c1ccccc1)(c1ccccc1)c1ccccc1 [fragment 42, 2,4-Dinitrophenyl 2,2,2-triphenylacetate]
isoTOP-ABPP ratio (R) at liganded lysine Q16864_K6 ([1]; 50 uM, in vitro): 1.0
isoTOP-ABPP ratio (R) at liganded lysine Q96C01_K99 ([2]; 50 uM, in vitro): 0.9
isoTOP-ABPP ratio (R) at liganded lysine P02766_K35 [4]: 1.0
